Drawing on patent publication US6444694B1, “Styryl benzimidazole derivatives” (Wyeth, priority 1995, dated 2002), this text covers melting point, IC50 and viability for 13 compounds.

In data set [1] the test system is isolated porcine aortic smooth muscle cells. As to the kind of experiment: Porcine aortic smooth muscle cell antiproliferation (3H thymidine incorporation). The format is cell-based. The note with it: 24-36 hours. Here is the method: The ability of the compounds of the present invention to inhibit smooth muscle cell proliferation was established using isolated porcine aortic smooth muscle cells in a modification of the procedure of Castellot et al. J. Biol. Chem 257(19) 11256 (1982), as follows:
Fresh porcine aortas, scrupulously cleansed of fatty tissue, are rinsed in sterile phosphate-buffered saline with 2% antibiotic-antimycotic (100×) liquid (10,000 units of penicillin (base), 10,000 μg of streptomycin (base), and 25 μg of amphotericin B/mL utilizing penicillin G (sodium salt), streptomycin sulfate, and amphotericin B as Fungizone® in 0.85% saline, available from Gibco Laboratories, Grand Island Biological Co., Grand Island, N.Y.). The tissue is then digested in 10-15 mL of an enzyme solution containing collagenase type I, 165 U/mL; elastase type III, 15 U/mL; BSA, 2 mg/mL; and soybean trypsin inhibitor, 0.375 mg/mL, followed by incubation at 37° C. under 5% CO2 atmosphere for 10 to 15 minutes. After this treatment, the outer surface adventitia is removed by peeling with a forceps. The aorta is then longitudinally cut and laid open and the endothelial layer is removed by scraping.
The medial layer of cells is rinsed in the enzyme solution, and placed in a new 100 mm dish with 10 mL of enzyme solution. The medial layer of cells is minced using a fine pair of scissors and digested for 2-3 hours at 37° C. in 30 mL of fresh enzyme solution. After digestion, the medial tissue is homogenized using a sterile Pasteur pipette with a fire polished tip or an Eppendorf pipetter with a 200-1000 μL sterile pipette tip. The suspension is then centrifuged for 10 minutes at 8000 rpm and the pellet is suspended in 4-6 mL of fresh enzyme solution and plated onto 4-6 100 mm flasks with vented caps. The cells are then allowed to grow to confluence and split using 0.25% trypsin. The cells are evaluated for purity and overall quality using antibody to SMC actin.
The cells are assayed in early passage (generally passage 3-7) at sub-confluent conditions. Cultures are grown in 16 mm (24 well) multi-well culture dishes in media 199 supplemented with 10% fetal bovine serum and 2% antibiotic/antimycotic. At subconfluence, the cells are placed in a defined serum free, lymphocyte medium (AIM-V; Gibco) for 24-48 hours prior to initiating the experimental protocol.
The standard test procedure is initiated by addition of the test compound, ^3H thymidine and serum or a specific growth factor to the serum deprived synchronized cells. Growth factor and serum stimulations are optimized for each cell type. The test compounds are added to each well at 50 fold dilution (20 μL/well) and the plates are incubated for 24-36 hours at 37° C. in 5% CO2 atmosphere. Test compounds are dissolved in 50% ethanol and assayed at 1, 10, and 100 μM. As a control, RG 50872 (Bilder, G. A.; et al., Am. J. Cell Physiol., 1991; 260: C721) is routinely assayed under the conditions of each cell preparation at a concentration of 5 μM.
At the completion of the experiment, the plates are placed on ice, washed three times with ice cold PBS and incubated in ice cold 10% trichloroacetic acid (TCA) for 30 minutes to remove acid soluble proteins. Each solution is transferred to a scintillation vial containing 0.4N HCl (500 μL/vial to neutralize NaOH) and each well is rinsed two times with water […].
Data is quantitated by subjecting the vials to a scintillation counter, in triplicate, for both control and experimental samples. Control (100%) data is obtained from maximally stimulated cells, as the result of growth factor or serum stimulation. Experimental data is obtained from cells maximally stimulated with growth factor or serum and treated with a test compound. (The platelet-derived growth factor used in the assay was human recombinant PDGF-AB purchased from Upstate Biotechnology Inc., Lake Placid, N.Y.). Data is expressed as a percent of control from which IC50s are determined.
For orientation: Incorporation of labelled thymidine or its analogues reports DNA synthesis.

Data set [2] can be described thus: Cytotoxicity, commercial modification of the MTT assay. The note with it: pig. Type of data set: cell-based, porcine. The arrangement: dose or concentration left out as unconfirmed. Here is the method:
To distinguish cytotoxicity from the ability of a compound to prevent proliferation, the test compounds were examined using a commercial modification of the MTT assay. Briefly, cells were grown in 24 well plates to 70-80% confluency. The cells were serum deprived for 24-48 hours prior to initiation of the experimental protocol. To insure that the MTT assay monitored toxicity rather than proliferation, the cells were incubated with […] test compound in fresh medium without serum for 24 hours at 37° C. in a humidified CO2 incubator. Upon completion of the compound treatment, MTT indicator dye was added for 4 hours a 37° C. Cells were then solubilized and aliquots from each will were transferred to a 96-well plate for analysis. Absorbance at 570 nm wavelength with a reference wavelength of 630 nm was recorded using an ELISA plate reader. Results are reported as percent viable using no drug (100% viable) and pre-solubilization (0% viable) standards.
In general terms: Formazan colour is commonly taken as a measure of viable cells.

[3] abbreviates: Sus scrofa, serum-stimulated, serum deprived synchronized cells, read-out: Porcine Smooth Muscle Cell Antiproliferation IC50 or % Inhibition at x Concentration, Serum.
[4] abbreviates: Sus scrofa, stimulated with human recombinant PDGF-AB, read-out: Porcine Smooth Muscle Cell Antiproliferation IC50 or % Inhibition at x Concentration, PDGF.
Where [5] appears, read: serum-stimulated, serum deprived synchronized cells, read-out: Porcine Smooth Muscle Cell Antiproliferation IC50 or % Inhibition at x Concentration, Serum.
[6] abbreviates: stimulated with human recombinant PDGF-AB, read-out: Porcine Smooth Muscle Cell Antiproliferation IC50 or % Inhibition at x Concentration, PDGF.

Structures can show the parent of a compound that is named as a salt. Where two headings read alike, the source gives them in different places.

One may read the melting point as the temperature, or range, at which the solid turns liquid. For the compound `COc1ccc2[nH]c(C=Cc3ccc(OC)c(OC)c3)nc2c1` (as salt: hydrochloride) (hydrate or solvate) [Example 2, 2-[2-(3,4-Dimethoxyphenyl)-vinyl]-5-methoxy-1H-benzoimidazole], the melting point lay in the range of 246 to 249 °C.
With `COC(=O)c1ccc(Cn2c(C=Cc3ccc(OC)c(OC)c3)nc3c(OC)c(C)c(C)c(OC)c32)cc1` (hydrate or solvate) [Example 8, 4-{2-[2-(3,4-Dimethoxyphenyl)-vinyl]-4,7-dimethoxy-5,6-dimethyl-benzoimidazol-1-ylmethyl}-benzoic acid methyl ester], the melting point is 111 to 114 °C.
As a reminder, the viability is a read-out of living cells in per cent, often relative to untreated cells. Turning to `COc1ccc(/C=C/c2nc3ccccc3[nH]2)cc1OC` [Example 1, (E)-2-[2-(3,4-Dimethoxyphenyl)-vinyl]-1H-benzoimidazole], the IC50 was found to be 5.91 µM in data set [1] (setting [3]) and 4.1 µM in data set [1] (setting [4]). The viability at 24 h in data set [2] is 100%.
For `COc1ccc2[nH]c(C=Cc3ccc(OC)c(OC)c3)nc2c1` [Example 2, 2-[2-(3,4-Dimethoxyphenyl)-vinyl]-5-methoxy-1H-benzoimidazole] the same measures were 11.4 µM, 3.48 µM and 100%.
As to `COc1ccc(C=Cc2nc3cc(C(=O)c4ccccc4)ccc3[nH]2)cc1OC` [Example 3, {2-[2-(3,4-Dimethoxyphenyl)-vinyl]-1H-benzoinmidazol-5-yl}-phenyl-methanone], the IC50 in data set [1] (setting [5]) is 7.6 µM; in data set [1] (setting [6]), 0.324 to 0.801 µM.
In turn, `COc1ccc(C=Cc2nc3c(OC)c(C)c(C)c(OC)c3[nH]2)cc1OC` [Example 4, 2-[2-(3,4-Dimethoxyphenyl)-vinyl]-4,7-dimethoxy-5,6-dimethyl-1H-benzoimidazole] showed a melting point of 116 to 119 °C. For the same compound, the IC50 in data set [1] (setting [3]) was 1.28 µM. Besides, the IC50 in data set [1] (setting [4]) came to 1.5 µM. The viability at 24 h in data set [2] came out at 100%.
For the compound `COC(=O)c1ccc2[nH]c(/C=C/c3ccc(OC)c(OC)c3)nc2c1` [Example 5, (E)-2-[2-(3,4-Dimethoxyphenyl)-vinyl]-1H-benzoimidazole-5-carboxylic acid methyl ester], the melting point was 185 to 188 °C. The IC50 in data set [1] (setting [3]) came to 1.2 µM. Moreover, in data set [1] (setting [4]), the IC50 is 6.12 µM. In data set [2], the viability at 24 h was 100%.
For `COc1ccc(/C=C/c2nc3cc(C(=O)O)ccc3[nH]2)cc1OC` [Example 6, (E)-2-[2-(3,4-Dimethoxyphenyl)-vinyl]-1H-benzoimidazole-5-carboxylic acid], the results for the IC50 in data set [1] (setting [3]) and in data set [1] (setting [4]) were 2.26 µM and 7.49 µM, respectively. Moreover, in data set [2], the viability at 24 h came to 100%.
For `COc1ccc(/C=C/c2nc3cc([N+](=O)[O-])ccc3[nH]2)cc1OC` [Example 7, (E)-2-[2-(3,4-Dimethoxyphenyl)-vinyl]-5-nitro-1H-benzoimidazole], the melting point was in the range of 223 to 225 °C. Besides, the IC50 in data set [1] (setting [3]) fell in the range of 0.567 to 1.9 µM. For the same compound, the IC50 in data set [1] (setting [4]) came to 1.49 µM. Besides, the viability at 24 h in data set [2] worked out at 100%.
Turning to `COC(=O)c1ccc(Cn2c(C=Cc3ccc(OC)c(OC)c3)nc3c(OC)c(C)c(C)c(OC)c32)cc1` [Example 8, 4-{2-[2-(3,4-Dimethoxyphenyl)-vinyl]-4,7-dimethoxy-5,6-dimethyl-benzoimidazol-1-ylmethyl}-benzoic acid methyl ester], the results for the IC50 in data set [1] (setting [3]) and in data set [1] (setting [4]) were 0.915 to 10.2 µM and 0.622 µM, respectively. For the same compound, in data set [2], the viability at 24 h stood at 80%.
In the case of `COc1ccc(C=Cc2nc3c([nH]2)C(=O)C(C)=C(C)C3=O)cc1OC` [Example 9, 2-[2-(3,4-Dimethoxyphenyl)-vinyl]-5,6-dimethyl-1-benzoimidazol-4,7-dione], the IC50 in data set [1] (setting [5]) turned out to be 14.5 µM; in data set [1] (setting [6]), 0.858 µM.
With `O=[N+]([O-])c1ccc2[nH]c(/C=C/c3ccncc3)nc2c1` [Example 10, (E)-5-Nitro2-(2-pyridin-4-yl-vinyl)-1H-benzoimidazole], the IC50 in data set [1] (setting [3]) turned out to be 8.36 µM; in data set [1] (setting [4]) it was 0.62 µM. For the same compound, the viability at 24 h in data set [2] stood at 45%.
Compound `O=[N+]([O-])c1ccc2[nH]c(/C=C/c3ccoc3)nc2c1` [Example 11, (E)-2-(2-Furan-3-yl-vinyl)-5-nitro-1H-benzoimidazole] came in with a melting point of 230 to 233 °C.
